Earlier results, collected in US20100099775A1, “METHOD FOR AMELIORATING OF POST-ANESTHETIC RECOVERY” (ALPHARX INC., priority 2008, published 2010).

Tests used:
[1] = tested on: patients with cerebrovascular disease; settings: 90 mg daily; nine patients
[2] = tested on: cultured cortical neurons; settings: also when applied 30 min after the NMDA pulse
[3] = tested on: Friedreich's Ataxia patients; settings: oral 5 mg/kg daily for 8 weeks
patients = settings: 5 mg/kg daily for 4-9 months; three patients

Solubility in fixed oils (fixed oils (soy, corn, almond, etc.)): low
water solubility (water): Low
Compound: COC1=C(OC)C(=O)C(CCCCCCCCCCO)=C(C)C1=O [Idebenone, 2,3-dimethoxy-5-methyl-6-(10-hydroxydecyl)-1,4 benzoquinone]
EEG and clinical symptoms [1]: improvements
protection of cortical neurons against necrotic degeneration [2]: rescued cortical neurons
marker of oxidative DNA damage [3]: significantly decreased
left ventricular enlargement (patients): reduction
